Results: patent US20060147947A1, “AMPK pathway components” (priority 2002, published 2006)
Like-named read-outs stand apart in the source and are kept apart here.

Legend:
AMPK = conditions: cited from earlier work
N2 (wild type) animals = system: N2 (wild type) animals
Text: (§1) To determine if the AMP/ATP ratio changed with age, we measured the levels of AMP, ADP, and ATP directly. We lysed 30 adult worms of the appropriate age, grown at the indicated temperature, lysed them, and separated the extract by Reversed Phase HPLC, measuring the Absorbance 260 nm. We used a C. elegans strain that lacks sperm at 25 C [CF512: fem-1(−); fer-15(−)].
(§2) Thirty animals of the appropriate age were hand-transferred to ice-cold lysis buffer (ATP Bioluminiscense Kit, Roche), frozen in liquid nitrogen, boiled for 15 minutes, passed trough a 0.2μ filter (Nanosep), and subjected to isocratic reversed phase chromatography using a TARGA C18 250×4.6 mm 5 μM column equilibrated in 100 mM KH2PO4, pH 6.0 at 1 mL per min. Detection at 260 nm was performed using a WATERS 486 tunable detector. Peak areas were measured using PEAK EXPLORER™ software. […] Unless noted, animals were one day old adults.
(§3) Dauer assays, heat tolerance and behavioral assays were performed as described. Starvation was performed by transfer to bacteria-free, peptone-free plates. Treatment with […] sodium azide was performed by transfer to plates with the drug; fraction alive was determined visually, six hours after transfer to normal growth. Gut fluorescence was photographed on the focal plane of the lumen with a DM505 filter on a NIKON E800 microscope. Average intensity was determined with METAMORPH™ 6.1r1 software.

amp-1(ok524) animals [1] = system: amp-1(ok524) animals
Text: as §1, §2, §3

amp-1(ok524) animals [2] = conditions: 1 mM sodium azide for 18 hours; amp-1(ok524) versus wild type
Experimental: Dauer assays, heat tolerance and behavioral assays were performed as described. Starvation was performed by transfer to bacteria-free, peptone-free plates. […] Gut fluorescence was photographed on the focal plane of the lumen with a DM505 filter on a NIKON E800 microscope. Average intensity was determined with METAMORPH™ 6.1r1 software.

[3] = 1 mM Azide 4 hours, then no azide 1 hour

CN(C)C(=N)N=C(N)N [Metformin]
effect on AMPK activity (AMPK): stimulate AMPK activity

Leptin: peptide hormone that increases AMPK activity when applied to cells
effect on AMPK activity (AMPK; applied to cells): increases AMPK activity

[N-]=[N+]=[N-] [sodium azide]
AMP/ATP Average (N2 (wild type) animals; 1 mM Azide 1 hour): 2.08 | AMP/ATP Average (N2 (wild type) animals; 1 mM Azide 4 hours): 2.53 | AMP/ATP Average (N2 (wild type) animals; [3]): 1.08 | AMP/ATP Average (amp-1(ok524) animals [1]; 1 mM Azide 1 hour): 3.19 | AMP/ATP Average (amp-1(ok524) animals [1]; 1 mM Azide 4 hours): 4.34 | AMP/ATP Average (amp-1(ok524) animals [1]; [3]): 1.24 | AMP/ATP Average (amp-1(ok524) animals [1]; 1 mM Azide 4 hours, then no azide 2 hour): 1.29 | sensitivity to killing (amp-1(ok524) animals [2]): more sensitive than wild type animals to killing

B1: adiponectin: globular and full-length adiponectin protein (protein, UniProt Q15848 19-244, looked up)
Adiponectin: ETTTQGPGVLLPLPKGACTGWMAGIPGHPGHNGAPGRDGRDGTPGEKGEKGDPGLIGPKGDIGETGVPGAEGPRGFPGIQGRKGEPGEGAYVYRSAFSVGLETYVTIPNMPIRFTKIFYNQQNHYDGSTGKFHCNIPGLYYFAYHITVYMKDVKVSLFKKDKAMLFTYDQYQENNVDQASGSVLLHLEVGDQVWLQVYGEGERNGLYADNDNDSTFTGFLLYHDTN
effect on AMPK activity (AMPK; liver cells): stimulates AMPK activity | effect on AMPK activity (AMPK; skeletal muscle): stimulate AMPK activity
